Legend:
[1] = test system: AKT phosphorylation in U251-MG glioblastoma cells; experiment: Western blots of phospho-AKT; type: cell-based, human; design: key to AKT P-Thr-308 signal intensity compared to DMSO / AKT P-Ser-473 signal intensity compared to DMSO: ns= not si gni fi cant by unpai r ed t -test
Experimental: About 3.5 × 10^6 U251 cells were seeded in 15 cm plates containing 30 mL of DMEM supplemented with 4.5 g/L D-glucose, L-glutamine, 10% FBS, 1% nonessential amino acids, and 1% penicillin–streptomycin (all from Thermo Fisher). […] Protein concentration was equalized using a Bradford assay, and samples were run on SDS-PAGE at 150 V for 1 h. Protein transfer was performed at 20 V for 1 h, membranes were blocked with 7 mL of EveryBlot blocking buffer (Bio-Rad) for 10 min. Primary antibodies used were AKT (#9272), Actin (#3700), and phospho-AKT (Ser473, #4060) at a 1:1000 dilution in EveryBlot blocking buffer, and phospho-AKT (Thr308, #13038) at a 1:400 dilution; all antibodies were from Cell Signaling Technology. After overnight incubation at 4 °C, membranes were washed and incubated with secondary antibodies (1:10,000 dilution for AKT, Actin, and P-AKT Ser473; 1:4000 for P-AKT Thr308) for 1 h. Detection was performed using Clarity Western ECL substrate (Bio-Rad) according to the manufacturer’s instructions and imaged using the Bio-Rad ChemiDoc system.

[2] = target: T1, purified recombinant human IP6K2 kinase domain (Homo sapiens, UniProt Q9UHH9); experiment: IP6K2 IC50 determination, malachite green Pi release assay; type: biochemical
T1 sequence (Q9UHH9 1-426): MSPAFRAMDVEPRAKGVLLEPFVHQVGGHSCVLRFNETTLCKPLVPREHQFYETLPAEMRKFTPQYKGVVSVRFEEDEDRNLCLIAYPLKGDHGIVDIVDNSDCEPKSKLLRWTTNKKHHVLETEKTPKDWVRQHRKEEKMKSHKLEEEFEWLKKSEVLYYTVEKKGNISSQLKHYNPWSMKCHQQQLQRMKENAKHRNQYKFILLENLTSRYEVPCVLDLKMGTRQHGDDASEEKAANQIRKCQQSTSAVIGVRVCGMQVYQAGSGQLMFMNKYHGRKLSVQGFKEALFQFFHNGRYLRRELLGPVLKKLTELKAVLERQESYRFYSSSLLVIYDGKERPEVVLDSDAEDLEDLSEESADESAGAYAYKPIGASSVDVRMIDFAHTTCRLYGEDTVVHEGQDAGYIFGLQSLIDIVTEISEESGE
Experimental: IP6K2 IC50 values were determined using the purified recombinant human IP6K2 kinase domain expressed in a 384-well clear polystyrene plate (VWR 82051-264). This human IP6K2 kinase domain (100 nM) was used at 37 °C in 50 μL reaction mixtures containing 5.0 μM human Dipp1, 50 mM Tris (pH 6.9), 10 mM MgCl2, 0.02% Triton X-100, 25 μM InsP6, and 50 μM ATP for 30 min. Pi release was determined with a malachite green colorimetric assay. Reactions were quenched by the addition of 12.5 μL of phosphate detection reagent (MAK3071KT, Sigma-Aldrich). Pi release was quantified from the absorbance at 620 nm by using appropriate standards.

[3] = test system: human U251-MG glioblastoma cells; experiment: CyQuant cell count / proliferation assay; type: cell-based; conditions: 48 h
Experimental: 1 Compound 1 inhibits human U251 glioblastoma cell growth and labeled inositol phosphate levels. (A) Schematic of inositol phosphate metabolism. (B) Chemical structure of compound 1, indicating moiety A (blue highlight), the core (gray highlight), and moiety B (red highlight), and the IC50 value as determined by the kinase-GLO assay. (C) CyQuant cell count assay of 10,000 human U251-MG glioblastoma cells seeded per well, treated for 48 h with DMSO vehicle or 400 nM compound 1 (n = 8, ***p = 0.0046, unpaired t test). (D) HPLC analysis of ^3H-inositol phosphates from U251-MG cells treated with 400 nM compound 1 (red bars) or DMSO (blue bars) and metabolically labeled with ^3H-inositol for 48 h, expressed as the percentage of the inositol peak from the HPLC for InsP3, InsP4, InsP5, and InsP6, as indicated, *p < 0.05 by unpaired t test Bonferroni corrected for multiple comparisons. (E) Same data as in (D) replotted with a nonzero y-axis to facilitate visualizing differences between DMSO vs. compound treatment for each indicated inositol phosphate species, *p < 0.05 by unpaired t test Bonferroni corrected for multiple comparisons.
Error represents the standard error from 3 independent assays. (B) CyQuant cellular proliferation assay of 10,000 human U251-MG glioblastoma cells seeded per well, treated for 48 h with DMSO vehicle or 10 μM 14 (n = 8, ****p adj < 0.0001 by one-way ANOVA, Dunnett’s corrected; *p < 0.05 by unpaired t test). (C) HPLC analysis of ^3H-inositol phosphates from U251-MG cells treated with 10 μM compound 14 (red bars) or DMSO (blue bars) and metabolically labeled with ^3H-inositol for 48 h, expressed as a percentage of all the peaks detectable from the HPLC, *p < 0.05, **p < 0.01, ***p < 0.001 by unpaired t test compared to DMSO-treated control for all remaining panels, n = 3. (D) Same as (C) but expressed as a percentage of the inositol HPLC peak, n = 3. (E) Same as C but expressed as a percentage of all the inositol phosphate peaks combined from the HPLC, n = 3.

IP6K2/IPMK ([2]; Table S1, ratio of IC50 values): 12
selectivity for IPMK over IP6K2 ([2]; from Table S1): 12 fold
IC50 ([2]; supplementary csv): 374 ± 159 nM
SMILES: c1cc(-c2onc3ccc(-c4nnn[nH]4)cc23)cc(C2CCN(C3CCC3)CC2)c1 [Compound 14, 3-(3-(1-Cyclobutylpiperidin-4-yl)phenyl)-5-(1H-tetrazol-5-yl)benzo[c]isoxazole]
AKT P-Ser-473 signal intensity compared to DMSO ([1]; 10 μM): ns
AKT P-Thr-308 signal intensity compared to DMSO ([1]; 10 μM): ns
AKT P-Ser-473 signal intensity compared to DMSO ([1]; 30 μM): ns
AKT P-Thr-308 signal intensity compared to DMSO ([1]; 30 μM): ns
AKT P-Ser-473 signal intensity compared to DMSO ([1]; 50 μM): ns
AKT P-Thr-308 signal intensity compared to DMSO ([1]; 50 μM): ns
cytosolic AKT phosphorylation ([1]; after 48 h of treatment as printed in text): did not detect any changes
cell growth ([3]; 1.0 μM): decreased cell growth
cell growth, CyQuant cellular proliferation assay ([3]; 10 μM, vs DMSO): inhibits cell growth
